This passage reports inhibition results from ChEMBL document CHEMBL5665443, “Enzyme Inhibitor Single Concentration assay results for EUbOPEN Chemogenomics Library” (2024).

Each structure is given as a SMILES string.

For experiment [1], the target named is Methyl-CpG-binding domain protein 4 (Homo sapiens) (UniProt O95243). Particulars: Compound Concentration 10.0 uM, Hit No.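 Also: MBD4 activity read as fluorescence at 594 nm from cleavage and release of a quenched duplex DNA oligonucleotide, with APE1 coupled to incise the strand and raise turnover.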
Chain of Methyl-CpG-binding domain protein 4 (Homo sapiens) (O95243 whole entry, the tested form may be a part): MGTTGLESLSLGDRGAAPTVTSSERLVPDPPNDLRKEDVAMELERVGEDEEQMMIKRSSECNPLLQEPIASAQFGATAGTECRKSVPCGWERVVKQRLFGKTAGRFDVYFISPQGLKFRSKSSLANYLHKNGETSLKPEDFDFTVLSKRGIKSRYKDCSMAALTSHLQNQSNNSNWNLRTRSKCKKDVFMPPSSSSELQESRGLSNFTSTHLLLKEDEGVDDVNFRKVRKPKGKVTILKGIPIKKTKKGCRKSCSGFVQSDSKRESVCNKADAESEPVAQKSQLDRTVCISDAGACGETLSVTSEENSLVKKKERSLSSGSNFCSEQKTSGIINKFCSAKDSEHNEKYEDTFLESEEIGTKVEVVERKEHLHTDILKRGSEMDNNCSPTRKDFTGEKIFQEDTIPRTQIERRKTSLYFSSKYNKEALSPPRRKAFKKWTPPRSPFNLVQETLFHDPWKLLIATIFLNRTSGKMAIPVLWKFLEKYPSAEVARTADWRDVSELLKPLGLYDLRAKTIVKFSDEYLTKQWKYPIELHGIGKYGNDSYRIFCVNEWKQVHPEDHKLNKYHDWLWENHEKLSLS
Description: Inhibition of MBD4 by quantifying inhibition of MBD4-mediated cleavage and dissociation of quenched duplex DNA oligonucleotides, measured as fluorescence at 594 nm. To generate a functional strand incision and increase turn-over this assay is coupled to APE1.
Experiment [2] addresses DNA-3-methyladenine glycosylase (Homo sapiens) (UniProt P29372). Particulars: Compound Concentration 10.0 uM, Hit No.
Description: Inhibition of MPG by quantifying inhibition of MPG-mediated cleavage and dissociation of quenched duplex DNA oligonucleotides, measured as fluorescence at 594 nm. To generate a functional strand incision and increase turn-over this assay is coupled to APE1.
Experiment [3] deals with T1, Adenine DNA glycosylase (Homo sapiens) (UniProt Q9UIF7).
T1 sequence (whole entry): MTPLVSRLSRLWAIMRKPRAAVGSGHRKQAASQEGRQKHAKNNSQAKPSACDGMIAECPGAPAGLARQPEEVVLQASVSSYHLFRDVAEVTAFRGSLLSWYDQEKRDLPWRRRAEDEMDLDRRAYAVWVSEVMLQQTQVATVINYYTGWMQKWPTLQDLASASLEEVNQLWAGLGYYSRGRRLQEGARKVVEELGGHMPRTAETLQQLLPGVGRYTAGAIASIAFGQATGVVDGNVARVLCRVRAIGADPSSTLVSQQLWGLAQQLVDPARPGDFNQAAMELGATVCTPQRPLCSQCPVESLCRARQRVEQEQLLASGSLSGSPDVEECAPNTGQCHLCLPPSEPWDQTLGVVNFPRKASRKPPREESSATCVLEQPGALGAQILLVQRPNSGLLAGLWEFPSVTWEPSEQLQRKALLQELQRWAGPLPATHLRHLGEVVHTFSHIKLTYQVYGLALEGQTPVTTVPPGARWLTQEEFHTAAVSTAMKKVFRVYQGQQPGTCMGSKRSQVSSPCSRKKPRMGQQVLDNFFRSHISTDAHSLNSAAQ
The settings on record: Compound Concentration 10.0 uM, Hit No.
Description: Inhibition of MUTYH by quantifying inhibition of MUTYH-mediated cleavage and dissociation of quenched duplex DNA oligonucleotides, measured as fluorescence at 594 nm. To generate a functional strand incision and increase turn-over this assay is coupled to APE1.

In experiment [4] the target is Endonuclease 8-like 1 (Homo sapiens) (UniProt Q96FI4). The settings on record: Compound Concentration 10.0 uM, Hit No.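 Also: fluorescence at 594 nm from quenched duplex DNA oligonucleotides released by NEIL1 cleavage and strand separation, reported as reduction of this enzyme activity.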
Chain of Endonuclease 8-like 1 (Homo sapiens) (Q96FI4 whole entry): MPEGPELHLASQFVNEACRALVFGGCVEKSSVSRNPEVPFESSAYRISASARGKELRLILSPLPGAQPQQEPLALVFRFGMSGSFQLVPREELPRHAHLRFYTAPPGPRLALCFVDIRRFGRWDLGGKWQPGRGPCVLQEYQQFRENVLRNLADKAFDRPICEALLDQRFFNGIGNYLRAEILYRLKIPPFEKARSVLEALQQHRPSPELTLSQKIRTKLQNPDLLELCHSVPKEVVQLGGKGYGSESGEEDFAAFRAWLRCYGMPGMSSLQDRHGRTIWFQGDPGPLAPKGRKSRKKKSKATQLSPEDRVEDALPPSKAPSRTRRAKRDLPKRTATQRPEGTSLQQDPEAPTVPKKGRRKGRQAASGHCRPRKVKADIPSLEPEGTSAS
Description: Inhibition of NEIL1 by quantifying inhibition of NEIL1-mediated cleavage and dissociation of quenched duplex DNA oligonucleotides, measured as fluorescence at 594 nm.
Experiment [5] addresses T2, Endonuclease 8-like 2 (Homo sapiens) (UniProt Q969S2).
T2 sequence (whole entry): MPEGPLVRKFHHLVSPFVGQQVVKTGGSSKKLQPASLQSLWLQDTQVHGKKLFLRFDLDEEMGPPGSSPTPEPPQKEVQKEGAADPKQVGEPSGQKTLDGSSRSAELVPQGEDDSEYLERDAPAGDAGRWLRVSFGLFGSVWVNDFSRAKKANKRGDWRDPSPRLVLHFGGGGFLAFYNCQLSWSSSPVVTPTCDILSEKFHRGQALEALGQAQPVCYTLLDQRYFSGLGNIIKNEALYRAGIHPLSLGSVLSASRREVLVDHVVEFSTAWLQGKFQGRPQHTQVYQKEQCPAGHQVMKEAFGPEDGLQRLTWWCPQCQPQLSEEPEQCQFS
The settings on record: Compound Concentration 10.0 uM, Hit No.
Description: Inhibition of NEIL2 by quantifying inhibition of NEIL2-mediated cleavage and dissociation of quenched duplex DNA oligonucleotides, measured as fluorescence at 594 nm.

Experiment [6] concerns the target T3, Endonuclease III-like protein 1 (Homo sapiens) (UniProt P78549).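 Also: enzyme assay tracking NTHL1 cutting and release of a quenched double-stranded DNA oligo substrate, read as fluorescence at 594 nm.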
T3 sequence (whole entry): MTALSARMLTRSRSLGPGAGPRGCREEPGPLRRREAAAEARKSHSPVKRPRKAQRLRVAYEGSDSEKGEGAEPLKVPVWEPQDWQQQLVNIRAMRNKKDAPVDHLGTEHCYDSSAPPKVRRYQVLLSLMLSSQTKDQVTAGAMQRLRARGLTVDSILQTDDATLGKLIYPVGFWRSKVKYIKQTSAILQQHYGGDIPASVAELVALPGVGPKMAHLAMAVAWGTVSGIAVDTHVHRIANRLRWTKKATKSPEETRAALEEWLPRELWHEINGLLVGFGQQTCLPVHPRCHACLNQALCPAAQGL
Particulars: Compound Concentration 10.0 uM, Hit No.
Description: Inhibition of NTHL1 by quantifying inhibition of NTHL1-mediated cleavage and dissociation of quenched duplex DNA oligonucleotides, measured as fluorescence at 594 nm.

The target of experiment [7] is N-glycosylase/DNA lyase (Homo sapiens) (UniProt O15527). Particulars: Compound Concentration 10.0 uM.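 Also: OGG1 cleavage of a quenched duplex DNA oligonucleotide, coupled to APE1 for strand incision, read as fluorescence at 594 nm.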
Chain of N-glycosylase/DNA lyase (Homo sapiens) (O15527 whole entry): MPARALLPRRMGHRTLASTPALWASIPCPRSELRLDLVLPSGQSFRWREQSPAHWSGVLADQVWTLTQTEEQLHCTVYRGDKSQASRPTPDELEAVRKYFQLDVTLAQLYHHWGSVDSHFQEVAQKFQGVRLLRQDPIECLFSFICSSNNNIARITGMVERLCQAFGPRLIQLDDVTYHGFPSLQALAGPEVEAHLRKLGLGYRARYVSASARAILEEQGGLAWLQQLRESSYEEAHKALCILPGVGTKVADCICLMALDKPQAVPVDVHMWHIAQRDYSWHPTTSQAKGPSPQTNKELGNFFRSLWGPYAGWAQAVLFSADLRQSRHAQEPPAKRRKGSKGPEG
Description: Inhibition of OGG1 by quantifying inhibition of OGG1-mediated cleavage and dissociation of quenched duplex DNA oligonucleotides, measured as fluorescence at 594 nm. To generate a functional strand incision and increase turn-over this assay is coupled to APE1.
Experiment [8] concerns the target T4, Single-strand selective monofunctional uracil DNA glycosylase (Homo sapiens) (UniProt Q53HV7).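 Also: enzymatic SMUG1 assay coupled with APE1, reading fluorescence at 594 nm released when a quenched double-stranded DNA oligonucleotide substrate is cleaved and separated.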
T4 sequence (whole entry): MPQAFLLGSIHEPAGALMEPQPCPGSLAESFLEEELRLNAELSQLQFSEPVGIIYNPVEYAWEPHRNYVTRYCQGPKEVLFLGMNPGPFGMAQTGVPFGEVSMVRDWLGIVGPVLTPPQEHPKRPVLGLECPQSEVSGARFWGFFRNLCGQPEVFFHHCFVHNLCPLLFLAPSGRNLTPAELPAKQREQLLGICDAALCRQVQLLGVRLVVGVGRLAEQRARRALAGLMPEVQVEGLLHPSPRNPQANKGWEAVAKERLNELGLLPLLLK
The settings on record: Compound Concentration 10.0 uM, Hit No.
Description: Inhibition of SMUG1 by quantifying inhibition of SMUG1-mediated cleavage and dissociation of quenched duplex DNA oligonucleotides, measured as fluorescence at 594 nm. To generate a functional strand incision and increase turn-over this assay is coupled to APE1.

The target in experiment [9] is G/T mismatch-specific thymine DNA glycosylase (Homo sapiens) (UniProt Q13569). The settings on record: Compound Concentration 10.0 uM, Hit No.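 Also: human TDG cleavage of quenched duplex DNA oligonucleotides coupled to APE1, strand release read as fluorescence at 594 nm, inhibition of TDG activity.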
Chain of G/T mismatch-specific thymine DNA glycosylase (Homo sapiens) (Q13569 whole entry): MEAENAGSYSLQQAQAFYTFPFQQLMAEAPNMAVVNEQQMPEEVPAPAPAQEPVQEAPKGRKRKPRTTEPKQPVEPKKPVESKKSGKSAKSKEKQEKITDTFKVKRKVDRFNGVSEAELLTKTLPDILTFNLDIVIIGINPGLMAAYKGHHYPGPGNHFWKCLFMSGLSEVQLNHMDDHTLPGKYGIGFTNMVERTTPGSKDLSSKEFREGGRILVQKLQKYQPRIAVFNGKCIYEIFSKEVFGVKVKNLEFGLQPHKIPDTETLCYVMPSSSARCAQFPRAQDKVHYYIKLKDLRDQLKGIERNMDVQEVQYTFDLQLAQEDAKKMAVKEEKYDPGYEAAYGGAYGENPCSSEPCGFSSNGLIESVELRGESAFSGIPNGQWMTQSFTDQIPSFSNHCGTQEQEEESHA
Description: Inhibition of TDG by quantifying inhibition of TDG-mediated cleavage and dissociation of quenched duplex DNA oligonucleotides, measured as fluorescence at 594 nm. To generate a functional strand incision and increase turn-over this assay is coupled to APE1.
The target of experiment [10] is Uracil-DNA glycosylase (Homo sapiens) (UniProt P13051). Particulars: Compound Concentration 10.0 uM, Hit No.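 Also: UNG excision on a quenched double-stranded DNA oligo probe, with APE1 added for strand incision and turnover, read as fluorescence at 594 nm as strands separate.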
Chain of Uracil-DNA glycosylase (Homo sapiens) (P13051 whole entry): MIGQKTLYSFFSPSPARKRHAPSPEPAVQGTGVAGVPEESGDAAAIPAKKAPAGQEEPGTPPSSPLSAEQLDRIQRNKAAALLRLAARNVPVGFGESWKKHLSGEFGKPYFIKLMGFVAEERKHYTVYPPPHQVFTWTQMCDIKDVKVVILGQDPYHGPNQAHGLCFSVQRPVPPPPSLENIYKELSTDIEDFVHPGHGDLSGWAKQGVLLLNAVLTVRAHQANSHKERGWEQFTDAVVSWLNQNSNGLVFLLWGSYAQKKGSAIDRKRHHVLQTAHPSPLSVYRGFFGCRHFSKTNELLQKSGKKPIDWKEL
Description: Inhibition of UNG by quantifying inhibition of UNG-mediated cleavage and dissociation of quenched duplex DNA oligonucleotides, measured as fluorescence at 594 nm. To generate a functional strand incision and increase turn-over this assay is coupled to APE1.

Chain of DNA-3-methyladenine glycosylase (Homo sapiens) (P29372 whole entry): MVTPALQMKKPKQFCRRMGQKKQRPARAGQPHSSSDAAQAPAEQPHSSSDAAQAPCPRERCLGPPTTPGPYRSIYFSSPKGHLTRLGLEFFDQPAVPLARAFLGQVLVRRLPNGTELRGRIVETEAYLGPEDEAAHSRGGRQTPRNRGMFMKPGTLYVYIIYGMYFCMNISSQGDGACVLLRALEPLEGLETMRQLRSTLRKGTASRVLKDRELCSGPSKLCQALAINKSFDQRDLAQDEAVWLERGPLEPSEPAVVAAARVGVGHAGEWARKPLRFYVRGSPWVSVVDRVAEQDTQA

For `O=C(NNC(=O)c1ccc(CNS(=O)(=O)c2ccc(F)c(Cl)c2)cc1)c1ccccc1`, the inhibition in experiment [1] was 27%; in [2], 9.45%; in [3] it was 22.1%; in experiment [4], 3.71%; in experiment [5], -6.97%; in experiment [6], 4.7%. In addition, the inhibition in [7] (Hit No) is 13.2%; in [8], 13.3%; in experiment [9], 16.4%; in [10], -0.108%.

In the case of `C[C@]1(C(=O)N(CCCC(=O)O)Cc2cccc(Cl)c2)CCN1C(=O)c1csc2ccccc12`, the inhibition in experiment [1] is -2.17%; in experiment [2] it was -1.32%; in experiment [3], 11.5%; in experiment [4], 3.5%; in [5] it was -3.73%; in [6] it was -9.8%. Also, the inhibition is 3.32% in experiment [7] (Hit No), 7.04% in experiment [8], 25.5% in experiment [9] and -7.61% in [10].

Consider `COc1cc(C(=O)NS(=O)(=O)c2ccccc2C)ccc1Cc1cn(C)c2ccc(NC(=O)OC3CCCC3)cc12`, for which the inhibition was determined as 67.2% in [1]; 33.1% in experiment [2]; 50.6% in experiment [3]; 13.9% in experiment [4]; 28.2% in experiment [5]; 29.8% in experiment [6]. In addition, the inhibition turned out to be 45.1% in experiment [7] (Hit Yes), 24% in [8], 61.3% in experiment [9] and 7.14% in experiment [10].

For `CCOC(=O)N[C@@H]1CC[C@@H]2[C@@H](C1)C[C@H]1C(=O)O[C@H](C)[C@H]1[C@H]2/C=C/c1ccc(-c2cccc(F)c2)cn1`, the inhibition in experiment [1] was -1.19%; in [2], -7.15%; in [3], 1.43%; in experiment [4], 5.28%; in [5], -1.73%; in experiment [6], 2.66%. Further, the inhibition in [7] (Hit No) was 8.48%; in [8] it was 10.5%; in experiment [9], 13.4%; in experiment [10] it was -5.33%.

In the case of `COc1cc([N+](=O)[O-])ccc1NC(=O)c1ccccc1O`, the inhibition is 0.275% in experiment [1]; -4.2% in experiment [2]; 4.12% in experiment [3]; 3.86% in [4]; 8.06% in experiment [5]; -0.258% in experiment [6]. In addition, the inhibition in [7] (Hit No) is -1.87%; in experiment [8], 9.42%; in experiment [9] it was 9.09%; in experiment [10], -6.06%.

Consider `NCC(O)c1ccc(O)cc1` (stereo not given), for which the inhibition in experiment [1] was found to be 41.7%; in experiment [2], 13.2%; in experiment [3], 17.4%; in experiment [4], 3.71%; in [5], 2.96%; in experiment [6], 2.22%. For the same molecule, the inhibition in experiment [7] (Hit No) is -0.921%; in experiment [8] it was 16%; in experiment [9] it was 14.3%; in [10] it was 0.665%.

On to `CCc1nnc(NS(=O)(=O)c2ccc(NC(=S)NC(=O)/C=C/c3ccc(F)cc3)cc2)s1`, for which the inhibition in experiment [1] is 48%; in [2], 31.8%; in [3], 54.8%; in [4], -4.5%; in [5], 9.5%; in experiment [6] it was 23.2%. In addition, the inhibition is 12.1% in experiment [7] (Hit No), 24.8% in experiment [8], 49.8% in experiment [9] and 3.3% in experiment [10].

Take `COc1ccc(/C=C/CCCCOc2ccc(C(=O)c3cccc(C(=O)O)c3)cc2CCC(=O)O)cc1`: the inhibition in [1] was 49.9%; in experiment [2], 15.9%; in [3], 28.6%; in experiment [4], -0.204%; in experiment [5] it was 15.7%; in experiment [6] it was 2.66%. Besides, the inhibition in experiment [7] (Hit Yes) is 42.4%; in [8] it was 12.1%; in [9], 43.2%; in experiment [10] it was -7.57%.

Consider `NS(=O)(=O)c1c(Cl)ccc(NC(=O)Nc2cccc(Cl)c2Cl)c1O`, for which the inhibition in experiment [1] is 14.2%; in experiment [2] it was 14.5%; in experiment [3], 10.9%; in experiment [4], -2.13%; in experiment [5], 3.51%; in experiment [6], 29%. For the same molecule, the inhibition in experiment [7] (Hit No) was 6.41%; in experiment [8] it was 8.49%; in experiment [9], 16.5%; in [10], -6.48%.

Turning to `Cc1cc(OCCCS(C)(=O)=O)cc(C)c1-c1cccc(COc2ccc3c(c2)OC[C@H]3CC(=O)O)c1`, the inhibition is 46.9% in experiment [1]; 12.1% in experiment [2]; 49.2% in [3]; -4.36% in [4]; 8.25% in [5]; 10.7% in experiment [6]. Also, the inhibition was 18.3% in experiment [7] (Hit No), 12.3% in experiment [8], 44.4% in experiment [9] and -3.46% in experiment [10].

Regarding `Cc1c(C2=CCN(C(=O)N(C)C(C)C)CC2)nnn1-c1cccnc1F`, the inhibition in experiment [1] is 0.847%; in [2], -1.32%; in experiment [3], 17%; in [4], -0.649%; in [5], 9%; in experiment [6], -9.8%. Further, the inhibition is -1.95% in experiment [7] (Hit No), 11.5% in experiment [8], 17.2% in [9] and -8.86% in experiment [10].

Take `CCC(C)(C)/N=C(\NC#N)Nc1cccnc1`: the inhibition in experiment [1] is 4.69%; in experiment [2], 6.03%; in [3] it was 4.93%; in experiment [4] it was 1.64%; in experiment [5], -1.62%; in [6] it was 21.2%. For the same molecule, the inhibition was -5.35% in experiment [7] (Hit No), -2.33% in [8], 5.61% in experiment [9] and -3.3% in experiment [10].

For the molecule `COc1cc(Nc2ccc([N+](=O)[O-])cc2C(=O)O)cc2ccccc12`, the inhibition was determined as 71% in experiment [1]; 44% in experiment [2]; 91.9% in experiment [3]; 3.71% in [4]; 5.25% in [5]; 11.3% in experiment [6]. Besides, the inhibition in [7] (Hit No) is 33.4%; in [8], 23.2%; in [9], 67.3%; in experiment [10], 10.9%.

For `NCCc1c[nH]c2ccc(C(N)=O)cc12`, the inhibition is -4.67% in experiment [1]; -1.86% in experiment [2]; 4.88% in [3]; 7.95% in experiment [4]; -5.97% in [5]; -7.6% in experiment [6]. In addition, the inhibition in [7] (Hit No) was -3.21%; in experiment [8] it was 0.209%; in [9], 8.45%; in [10], -6.78%.

Turning to `CCn1cnc2c(-c3ccc(F)c(-c4ccc(S(=O)(=O)CC)cc4OC)c3)cnnc21`, the inhibition came to 19.2% in [1]; 7.34% in [2]; 16.3% in experiment [3]; 6.83% in experiment [4]; 12.9% in experiment [5]; 13.8% in experiment [6]. The inhibition is -5.04% in [7] (Hit No), 1.23% in [8], 22.3% in experiment [9] and 6.05% in experiment [10].

For orientation: inhibition means the change of the read-out against control, counted positive when it falls.
